Values after ≈ are worked out from the molar mass of the structure shown. Like-named read-outs stand apart in the source and are kept apart here.

A short description of one data set: Kinetic solubility. The data set is classed as physicochemical. The conditions noted are these: kinetic from dmso stock.
For a further data set, the target named is T1, B cell lymphoma 6 (BCL6) (Homo sapiens, UniProt P41182).
T1 construct: Endogenous B cell lymphoma 6 (BCL6) was tagged with the 11-amino acid Small BiT (SmBiT); endogenous in cells; host or cells: SU-DHL-4 (CRISPR/Cas9 knock-in, single cell clone)
The data set is described as follows: HiBiT cellular degradation assay in SU-DHL-4 cells. The class given is cell-based. The conditions noted are these: for DC50: concentration to reach 50% degradation of endogenous SmBiT-tagged BCL6, SU-DHL-4 cells, 24 hours of compound treatment. Here is the method: DC50 (concentration to reach 50% degradation) values were determined from a cellular degradation assay (HiBiT, Promega™) in Su-DHL-4 cells (Table 1). Endogenous B cell lymphoma 6 (BCL6) was tagged with the 11-amino acid Small BiT (SmBiT) through clustered regularly interspaced short palindromic repeats (CRISPR)/CRISPR-associated protein 9 (Cas9) gene editing and single cell clone selection. After 24 hours of compound treatment, cells were lysed and incubated with Large BiT (LgBiT) protein to reconstitute intact nanoluciferase. Substrate was then added and relative luciferase units were measured. Degradation levels for each treatment were taken as a percentage compared to the control, 100% DMSO (Prism).
For orientation: HiBiT is a short tag that completes a luciferase, so light tracks the accessible tagged protein.

A short description of data set [1]: Metabolic stability in human liver microsome. The class given is in vitro ADME. The settings on record: pH 7.4; human liver microsomes with NADPH, 37° C., 0-60 min. Here is the method: • K2HPO4 was dissolved in water to a final concentration of 50 mM, and then adjusted pH to 7.4 with HCl and filtered through a 0.22 μm filter.
• 1 mg/mL stock of terfenadine/tolbutamide with DMSO was prepared, and then made into quenching solution (5/10 ng/mL terfenadine/tolbutamide) with can.
• 10 mM test compound stock with DMSO was prepared, and then made into 200 μM working solution with DMSO.
• 10 mM control compound (dextromethorphan) stock with DMSO was prepared, and then made into 200 μM working solution with DMSO.
• Liver microsomes were thawed in 37° C. water bath, and then made into 0.63 mg/mL liver microsomes working solution with phosphate buffer.
• 5 mM NADPH working solution was prepared with phosphate buffer.
• a) 1.5 μL test compound/control compound working solution was added to 238.5 μL liver microsome (n=1). • b) The solution was pre-incubated at 37° C. for 5 min. • c) The reaction was started by adding 60 μL NADPH working solution. • d) At each time point (0, 5, 15, 30 and 60 min), 30 μL reaction mixture was removed and added to 300 μL quenching solution. • e) All samples were centrifuged at 4,000 rpm at 4° C. for 15 min, then 100 μL of supernatant was transferred with 100 μL water for LC-MS/MS analysis.
A general note: Liver microsomes are a subcellular fraction often used to study metabolism.

The mark [2] stands for this setting: aqueous buffer, 50 mM phosphate buffer pH 7.4, 24 hours at room temperature, read-out: Kinetic solubility @pH 7.4.
Where [3] appears, read: FaSSIF, read-out: Kinetic solubility (FaSSIF).
Where [4] appears, read: FeSSIF, read-out: Kinetic solubility (FeSSIF).

For the molecule `C[C@@H]1CN(c2ncc(Cl)c(Nc3ccc4c(c3)n(CCC(C)(C)O)c(=O)n4C)n2)C[C@H](CN)C1(F)F` (single isomer, unassigned) [Compound 2a], the kinetic solubility – broadly, solubility judged after dilution from a stock solution rather than from solid – at 24 h in “Kinetic solubility” (setting [2]) was found to be 266 µM (≈ 139 µg/mL). Also, the 50% degradation concentration (DC50) (in general, the midpoint of the concentration-degradation curve) at B cell lymphoma 6 (BCL6) is 105 nM. Moreover, in data set [1], the microsomal CLint (in general, the capacity of the preparation to metabolise the compound, expressed as a volume cleared per time) at 1 µM was under 6.1 µL/min/mg.

In the case of `CNC(=O)COc1cc2cc(Nc3nc(N4C[C@H](CCN)C(F)(F)[C@H](C)C4)ncc3Cl)ccc2n(C)c1=O` (single isomer, unassigned) [Compound 51a], the kinetic solubility at 24 h in the data set “Kinetic solubility” (setting [3]) is 6.35 µM (≈ 3.49 µg/mL); in “Kinetic solubility” (setting [4]) it was 113 µM (≈ 62.2 µg/mL); in the data set “Kinetic solubility” (setting [2]), under 1.56 µM. At B cell lymphoma 6 (BCL6), this molecule had a DC50 of 2 nM. Further, the intrinsic clearance (microsomal CLint) at 1 µM in data set [1] is under 6.1 µL/min/mg.

Consider `CNC(=O)COc1cc2cc(Nc3nc(N4C[C@H](C)C[C@H](C)C4)ncc3Cl)ccc2n(C)c1=O` [BI-3802], for which the solubility (kinetic) at 24 h in “Kinetic solubility” (setting [3]) is 2.97 µM (≈ 1.44 µg/mL); in “Kinetic solubility” (setting [4]), 11.3 µM (≈ 5.48 µg/mL); in “Kinetic solubility” (setting [2]), under 1.56 µM. This molecule had a DC50 at B cell lymphoma 6 (BCL6) of 5 nM. In data set [1], this molecule returned a microsomal CLint at 1 µM of 23.8 µL/min/mg.

Turning to `C[C@@H]1CN(c2ncc(Cl)c(Nc3ccc4c(c3)n(CCC(C)(C)O)c(=O)n4C)n2)C[C@H](C)C1(F)F` [CCT-369260], the results for the solubility (kinetic) at 24 h in the data set “Kinetic solubility” (setting [3]), in “Kinetic solubility” (setting [4]) and in the data set “Kinetic solubility” (setting [2]) were 2.92 µM (≈ 1.49 µg/mL), 216 µM (≈ 110 µg/mL) and under 1.56 µM, respectively. For the same molecule, the intrinsic clearance (microsomal CLint) at 1 µM in data set [1] amounted to 12.3 µL/min/mg.

As for `CNC(=O)COc1cc2cc(Nc3nc(N4C[C@@H](C)C(F)(F)[C@@H](C)C4)ncc3Cl)ccc2n(C)c1=O` [Cmp A], the figures for the kinetic solubility at 24 h in “Kinetic solubility” (setting [3]), in “Kinetic solubility” (setting [4]) and in the data set “Kinetic solubility” (setting [2]) were under 1.56 µM, 1.82 µM (≈ 0.948 µg/mL) and under 1.56 µM, respectively. Half-maximal degradation at B cell lymphoma 6 (BCL6) (DC50) was put at 5 nM. This molecule also came in with an intrinsic clearance (microsomal CLint) at 1 µM in data set [1] of under 3.7 µL/min/mg.

As for `C[C@@H]1C[C@H](C)CN(c2ncc(Cl)c(Nc3ccc4c(c3)n(CCC(C)(C)O)c(=O)n4C)n2)C1` [Cmp B], the kinetic solubility at 24 h was under 1.56 µM in “Kinetic solubility” (setting [3]), 213 µM (≈ 101 µg/mL) in “Kinetic solubility” (setting [4]) and under 1.56 µM in the data set “Kinetic solubility” (setting [2]). This molecule also showed a microsomal CLint at 1 µM in data set [1] of 30 µL/min/mg.

With `C[C@@H]1CN(c2ncc(Cl)c(Nc3ccc4c(c3)n(CCC(C)(C)O)c(=O)n4C)n2)C[C@H](N)C1(F)F` [Compound 1, 5-[[2-[(3S,5R)-3-Amino-4,4-difluoro-5-methyl-1-piperidyl]-5-chloro-pyrimidin-4-yl]amino]-3-(3-hydroxy-3-methyl-butyl)-1-methyl-benzimidazol-2-one], the kinetic solubility at 24 h in the data set “Kinetic solubility” (setting [3]) is 208 µM (≈ 106 µg/mL); in the data set “Kinetic solubility” (setting [4]), 232 µM (≈ 118 µg/mL); in the data set “Kinetic solubility” (setting [2]) it was 108 µM (≈ 55.1 µg/mL). This molecule returned a 50% degradation concentration (DC50) on B cell lymphoma 6 (BCL6) of 20 nM. The “BCL6 degrader status (in words)” value at B cell lymphoma 6 (BCL6) (conclusion drawn from Table 1) was “degraders of BCL6”. For the same molecule, the microsomal CLint at 1 µM in data set [1] is under 6.1 µL/min/mg.

Values taken from US20260130907A1 (DANA-FARBER CANCER INSTITUTE, INC., priority 2022, published 2026).
